Results from patent US6429204B1, “Method of inhibiting cancer growth” (University of Miami, priority 1997, dated 2002).

Experiments:
COLO 205 Cells = experiment: MTS cytotoxicity assay, COLO 205; details: two days
Procedure: (§3) A panel of chemically modified tetracycline compounds and doxycycline were tested for cytotoxicity against two carcinomas: COLO 205 (a human colon carcinoma-derived cell line) and the E-10 clone of MDA-MB-231 (a human breast carcinoma-derived cell line). Cytoxicity was measured using a conventional assay for viability with a tetrazolium salt (MTS). Cells were grown in media containing the CMTs at concentrations ranging from 5 μM to 100 μM for two days. The cells were then incubated with the MTS for several hours before removal of the supernatant medium for determination of formazan, which is generated only by the viable cells. Results are expressed as percent cytotoxicity, which is simply the percent decline in measured formazan concentration in the sampled medium.

Gelatinase B = biological target: T1, Gelatinase B (Homo sapiens, UniProt P14780); experiment: Zymography with densitometry of C8161 conditioned medium, gelatinase B; format: cell-based; details: 50 μg/mL, 24 hr
T1 construct: endogenous in cells; host or cells: C8161
Procedure: (§1) Six hundred thousand (6×10^5) C8161 cells were seeded per well in a 12-well dish coated with a laminin/collagen IV/gelatin matrix in DMEM plus Mito+ and 0.1% gentamicin sulfate. After approximately 1 hr incubation to allow the cells to attach, 50 μg/mL of either doxycycline or one of the other CMTs was added per well and the dish then placed in a 37° C. humidified 5% CO2 incubator. After 24 hr, the supernatants were removed and centrifuged to remove any cells or debris. One volume of Laemmli sample buffer minus reductant was added to two volumes of the medium, and this sample electrophoresed without prior heating or boiling on a 10% SDS-PAGE containing 0.1% gelatin (samples normalized based on the same number of cells per volume of medium per time of incubation). After electrophoresis, the gels were washed with gentle shaking at room temperature for 30 min in 50 mM Tris-HCl (pH 7.5) plus 2.5% TRITON® X100 plus 50 μg/mL of the corresponding CMT used in the original treatment. The gel was then placed in incubation buffer (50 mM Tris-Cl/10 mM CaCl2/150 mM NaCl/0.05% NaN3) also containing 50 μg/mL of the corresponding CMT, and incubated at 37° C. for 20-24 hr. The gels were stained with Coomassie BBR-250, then destained with 10% methanol/10% acetic acid in water until the wash remained clear. A photographic negative of the gel was digitized using a video camera and Snappy Video Snapshot system (Play Inc., Rancho Cordova, Calif.). An integrated density was determined for each of the cleared zones of proteolysis using the software ImagePC8α (freely available from the National Institutes of Health), and the corresponding changes in gelatinolytic activities reported compared to the control samples normalized to a value of 1.0.

[1] = Solubility in aqueous systems; format: physicochemical
Gelatinase A = biological target: T2, Gelatinase A (Homo sapiens, UniProt P08253); experiment: Zymography with densitometry of C8161 conditioned medium, gelatinase A; format: cell-based; details: 50 μg/mL, 24 hr
T2 construct: endogenous in cells; host or cells: C8161
T2 sequence (P08253 110-660): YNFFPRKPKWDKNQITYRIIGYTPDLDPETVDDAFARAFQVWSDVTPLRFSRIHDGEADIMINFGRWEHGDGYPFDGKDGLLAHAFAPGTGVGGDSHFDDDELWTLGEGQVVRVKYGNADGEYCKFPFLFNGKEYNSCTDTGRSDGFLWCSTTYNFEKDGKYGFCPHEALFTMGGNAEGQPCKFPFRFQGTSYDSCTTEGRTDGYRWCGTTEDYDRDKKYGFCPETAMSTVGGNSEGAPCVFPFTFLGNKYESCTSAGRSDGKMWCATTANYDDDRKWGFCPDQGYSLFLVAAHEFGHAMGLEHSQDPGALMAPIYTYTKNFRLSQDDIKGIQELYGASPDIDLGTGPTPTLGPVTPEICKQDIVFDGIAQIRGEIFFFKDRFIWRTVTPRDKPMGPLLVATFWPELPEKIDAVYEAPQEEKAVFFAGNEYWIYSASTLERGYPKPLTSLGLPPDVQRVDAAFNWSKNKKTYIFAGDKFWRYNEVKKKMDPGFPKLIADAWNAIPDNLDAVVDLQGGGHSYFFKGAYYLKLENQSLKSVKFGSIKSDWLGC
Procedure: as §1

Dunning MAT LyLu cells [2] = experiment: Matrigel invasion assay (Boyden chamber, MTT), MAT LyLu; format: cell-based, rat; details: MAT LyLu, 5 μg/mL, 48 hr
Procedure: (§2) In this method, 4×10^5 tumor cells were plated on the top chamber of the Boyden chemotaxis assay chambers (Costar Transwell plates). The bottom side of the chamber was a 12 μm-pore polycarbonate filter layered with 0.5 mm thick layer of Matrigel. The bottom well contained a chemoattractant, a serum-free culture-conditioned medium from FHS 733 cells, a line of human fetal lung fibroblasts (ATCC No. HTB-157). Cancer cells (4×10^5) were plated in the top wells of the plates. Doxycycline or CMTs were diluted in a serum-free medium to 5 μg/mL, and were added to both top and bottom chambers. […] After 48 hr incubation, MTT was added to both the top and bottom wells (0.5 mg/mL), and incubation was continued for 4 hr. Wells were then emptied, and the cells from the undersides of the filter were pooled with those in the bottom wells with a filter tip. The reduced MTT (formazan) from top and bottom wells was solubilized with DMSO overnight, and absorbance (O.D.) at 515 nm was measured. The ratio of the O.D. from the bottom wells to that of the total (i.e., O.D. of top plus bottom wells) was taken as the invasive potential. […] The MTT assay procedure also normalizes the coincident inhibition due to the cytotoxic effects of the agents under investigation. Results presented are from three independent experiments.

Dunning MAT LyLu cells [3] = experiment: Cytotoxic effect on MAT LyLu cells (trypan blue); format: cell-based, rat; details: 24 hr or 48 hr exposure
Procedure: Cell viability was estimated by trypan blue staining following exposure to the drugs. The results of these studies are summarized in FIG. 4A (24 hours) and FIG. 4B (48 hr). Data are presented as Mean±SEM from three separate experiments.

E-10 Cells = experiment: MTS cytotoxicity assay, E-10; details: two days
Procedure: as §3

[4] = test system: C8161 human melanoma cells; experiment: In vitro invasion assay (MICS), laminin/collagen IV/gelatin matrix-coated filter; format: cell-based; details: 3, 20 and 50 μg/mL; for Percent Inhibition of invasive potential: 48 hr
Procedure: The in vitro invasive potentials of the control (DMSO only) and chemically-modified tetracycline treated cells were measured using a modified Boyden chamber as previously described (Membrane Invasion Culture System, MICS). An intervening barrier consisting of a polycarbonate filter containing 10 μm pores (Osmonics, Livermore, Calif.) coated with a defined matrix of human laminin/collagen IV/gelatin (Sigma, St. Louis, Mo.) was used for these studies. […] Doxycycline or individual CMTs were then added to different wells of the chamber at 3, 20 or 50 μg/mL 2 hr post-seeding and daily during the assay. After 48 hr, the cells were removed from the lower wells and the number of invasive cells was determined and compared to the original number of cells seeded into the upper wells. Where appropriate, data were corrected for proliferation during the period of the in vitro assay.

[5] = test system: DU-145 and TSU-PR1 prostate cancer cell lines; experiment: Prostate cancer cell viability/proliferation (trypan blue, MTT); format: cell-based, human; details: exposure time not stated (24 hr or 48 hr)
Description: To determine the cytotoxicity of CMTs on prostate tumor cell lines, TSU-PR1 cells (and cells of other tumor cell lines) were exposed to various CMTs or to doxycycline for 24 hr or 48 hr in a complete medium. Cell viability (percent of live cells) was estimated by counting the cells following trypan blue staining. Cellular viability was also estimated by the tetrazolium dye reduction assay (MTT assay) (Lokeshwar et al. 1995b). Due to the aggressive proliferative capacity of cancer cells, it is assumed that viable cells are actively proliferating. Therefore, the measurement of viability was used as an estimate of proliferation. Results are expressed as Mean±SEM from three separate experiments.

[6] = Blood levels after oral gavage of adult rats
Description: In the treatment of certain localized cancers, the degree of hydrophilicity of the non-antimicrobial tetracycline compound can be of lesser importance.

C8161 cells [7] = experiment: C8161 cell proliferation (doubling time); format: cell-based, human; details: 50 μg/mL; for Doubling Time: on plastic, DMSO 22 hr; for increase of doubling time: versus DMSO
Procedure: Cell Culture and Maintenance: C8161 cells, a human melanoma cell line, were maintained in Dulbecco's modified Eagle's medium (DMEM; […] These cells were routinely screened for Mycoplasma contamination using the GenProbe Rapid Detection System (Fisher Scientific; Chicago, Ill.). Chemically Modified Tetracyclines: Fresh stock solutions of the chemically modified tetracycline compounds (2 mg/mL) were prepared for each experiment by hydrating in 2% dimethyl sulfoxide (DMSO)/water pH 10, then adjusting to pH 7.4 using 1.0 M HCl. […] Sigma Chem. Co.; control) or 50 μg/mL of doxycycline or the other CMTs (three wells on each plate per compound). […] The doubling time for C8161 cells in the presence of each compound was then determined and compared to the DMSO treated cells (control).

TSU-PR1 cells = experiment: Matrigel invasion assay (Boyden chamber, MTT), TSU-PR1; format: cell-based, human; details: TSU-PR1, 48 hr
Procedure: as §2

C8161 cells [8] = experiment: In vivo metastasis assay, C8161 cells i.v. in SCID mice; details: for Number of Lung Metastases/Mouse: Average ± SEM, control 231 ± 49
Procedure: Immunosuppressed mice (athymic nude/nude SCID females from Harlan Sprague Dawley) were housed in autoclaved cages with microisolator tops, and all manipulations of the animals were done in a laminar flow hood after wiping down both the hood, gloves and cages with ABQ sterilant. The mice were fed sterile Pico Lab Chow (Purina) and autoclaved St. Louis tap water. […] The compounds and control (sterile water plus 2% carboxymethyl cellulose) were kept stored at −80° C. wrapped in aluminum foil to prevent any light induced changes, and each day's supply was thawed just prior to use. Four compounds were tested for their effects on the metastatic potential of C8161 cells injected intravenously via the tail vein: […] The concentration of the compounds in the vials used to give the 100 mg/kg doses were 2.5 times that in the 40 mg/kg dose so that approximately the same volume was used in both cases, approximately 0.5 mL/animal. The experiments started with nine animals per group at day −4. On day zero, 2×10^5 C8161 cells in cold Hank's Balanced Salt Solution (HBSS) were injected intravenously via tail vein inoculation. The experiment was continued for an additional 24 days, at which time the animals were sacrificed and their lungs removed and fixed in a solution of Bouins/formaldehyde (5 parts:1 part). Tumors were quantitated on the entire surface of the lungs by rotating the lungs and counting the tumors on each lobe using a 6× magnifying glass. Statistical analysis was performed using the statistical package of Microsoft's Excel spreadsheet software.

T1 sequence (P14780 94-707): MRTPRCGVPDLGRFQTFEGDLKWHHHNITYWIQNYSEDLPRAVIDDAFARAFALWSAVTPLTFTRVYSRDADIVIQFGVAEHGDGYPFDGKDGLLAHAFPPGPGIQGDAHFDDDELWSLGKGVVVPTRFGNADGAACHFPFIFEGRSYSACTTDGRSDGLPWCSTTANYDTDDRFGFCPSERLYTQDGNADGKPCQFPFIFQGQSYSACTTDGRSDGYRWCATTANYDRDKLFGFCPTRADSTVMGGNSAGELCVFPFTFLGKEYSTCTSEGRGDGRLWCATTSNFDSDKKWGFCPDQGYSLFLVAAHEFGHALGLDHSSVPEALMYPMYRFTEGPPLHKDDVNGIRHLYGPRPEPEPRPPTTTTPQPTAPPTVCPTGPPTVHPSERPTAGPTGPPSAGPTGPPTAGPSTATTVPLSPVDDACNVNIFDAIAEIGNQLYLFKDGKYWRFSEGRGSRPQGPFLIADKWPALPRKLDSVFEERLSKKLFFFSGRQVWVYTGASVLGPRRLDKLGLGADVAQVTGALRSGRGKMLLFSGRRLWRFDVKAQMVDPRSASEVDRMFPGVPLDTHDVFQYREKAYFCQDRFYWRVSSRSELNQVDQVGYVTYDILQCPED

Row | SMILES | percent cytotoxicity (COLO 205 Cells; 5 μM) [%] | percent cytotoxicity (COLO 205 Cells; 10 μM) [%] | percent cytotoxicity (COLO 205 Cells; 20 μM) [%] | percent cytotoxicity (COLO 205 Cells; 50 μM) [%] | percent cytotoxicity (COLO 205 Cells; 100 μM) [%] | Gelatinase B, integrated density normalized to control 1.00 (Gelatinase B) | Gelatinase A, integrated density normalized to control 1.00 (Gelatinase A) | percent cytotoxicity (E-10 Cells; 5 μM) [%] | percent cytotoxicity (E-10 Cells; 10 μM) [%] | percent cytotoxicity (E-10 Cells; 20 μM) [%] | percent cytotoxicity (E-10 Cells; 50 μM) [%] | percent cytotoxicity (E-10 Cells; 100 μM) [%] | Type of Inhibition [4] | Percent Inhibition of invasive potential [4] | 50% inhibition dose (IC50), cell proliferation [5] [µg/mL] | Doubling Time (C8161 cells [7]) [h] | increase of doubling time (C8161 cells [7]) | other results
1 | CN(C)C1C(=O)C(C#N)=C(O)C2(O)C(=O)C3=C(O)c4c(O)cccc4C(C)(O)C3CC12 (stereo not drawn) [CMT-2, tetracyclinonitrile] | 2.7 | 4.5 | 0 | 7 | 16.3 | 1.51 | 0.89 | 1.5 | 3.8 | 0.8 | 0 | 2.3 | non-dose | ˜10% | 5.7 |  |  | solubility in aqueous systems [1]: low solubility in aqueous systems; inhibition of invasive/metastatic potential (Matrigel invasion) (Dunning MAT LyLu cells [2]): equally inhibited; inhibition of cell proliferation (rank among tested drugs) (Dunning MAT LyLu cells [3]): most effective inhibitors of cell proliferation; blood levels ([6]; rat, in vivo, po): no detectable blood levels
2 | CC1(O)c2cccc(O)c2C(=O)C2=C(O)C3C(=O)C(C(N)=O)=C(O)CC3CC21 (stereo not drawn) [CMT-7, 4-de(dimethylamino)-12α-deoxytetracycline] | 0 | 0 | 0 | 0 | 29.4 | 1.22 | 0.17 | 0 | 0 | 0 | 0 | 8.3 | non | 15-55% |  | 24 | approximately 9% | 50% inhibitory dose (IC50), Matrigel invasion (TSU-PR1 cells): > 100 µg/mL; Number of Lung Metastases/Mouse (C8161 cells [8]; 40 mg/kg daily intragastric): 136 ± 107; Number of Lung Metastases/Mouse (C8161 cells [8]; 100 mg/kg daily intragastric): 166 ± 101; effect on number of lung metastases (significance) (C8161 cells [8]; at either dosage, p>0.05): did not significantly reduce the number of lung metastases
3 | CC1(O)c2cccc(O)c2C(=O)C2=C(O)C3(O)C(=O)C(C(N)=O)=C(O)C(O)C3CC21 (stereo not drawn) [CMT-6, 4-hydroxy-4-de(dimethylamino)tetracycline] | 1.7 | 0 | 0 | 0 | 22.2 | 0.51 | 0.07 | 0 | 6 | 3 | 7.6 | 16.7 | dose dependent | 8-50% | 120 | 24 | approximately 9% | blood levels ([6]; adult rats, oral gavage): no detectable blood levels
